Laboratory results taken from publication PMC4686731, “Screening of Pharmacologically Active Small Molecule Compounds Identifies Antifungal Agents Against Candida Biofilms” (Frontiers in Microbiology, 2015).
In brackets after ≈: the same amount, converted by molar mass.

Key:
[1] = tested on: C. kusei ATCC 6258; test: AST, adhesion phase; assay type: cell-based; details: 1.5 h, read-out: Minimum inhibitory concentration (MIC)
Protocol: (§1) The in vitro susceptibility of well-characterized wild-type C. albicans strain SC5314, which was provided by Prof. N.A.R. Gow (University of Aberdeen, Aberdeen, UK) was tested against 1280 compounds from the Library of Pharmacologically Active Compounds (LOPAC^1280TM, Sigma–Aldrich, USA). The screen was performed with C. albicans SC5314, and hits were further confirmed with the type strains C. dubliniensis MYA 577, C. glabrata ATCC 2001, C. kusei ATCC 6258, C. palapsilosis ATCC 22019, and C. tropicalis ATCC13803.
(§2) To investigate the antifungal effects of the hit compounds, ASTs were conducted using broth microdilution assays with high cell densities of the planktonic mode, adhesion phase and biofilm mode against Candida strains (C. albicans, C. dubliniensis, C. glabrata, C. kusei, C. palapsilosis, and C. tropicalis). First, high density cell (1 × 10^7 cells/mL) suspensions were added to the RPMI medium containing each hit compound (10–1000 μM) in 96-well plates and incubated at 37°C for 24 h. Next, the 50% minimum inhibitory concentrations (MICs) of high-density Candida planktonic cultures were determined using the CellTiter-Glo luminescent cell viability kit, as described above. The antifungal effects of the hit compounds were also evaluated in the adhesion phase and the biofilm mode, in the same manner as the planktonic mode. Candida biofilms were produced as described previously ([Jin et al., 2004]). In brief, Candida cells were grown on SDA at 37°C for 18 h. A loopful of the yeast culture was then inoculated into yeast nitrogen base (YNB) (Difco, USA) medium supplemented with 50 mM glucose. After overnight broth culture in a rotary shaker at 75 rpm, the cells were washed twice with 20 mL of PBS (pH 7.2, 0.1 M). The yeast cells were re-suspended in YNB supplemented with 100 mM glucose and adjusted to an optical density of 0.38 (1 × 10^7 cells/mL) at 520 nm. This standardized cell suspension was used immediately to form biofilms in the wells of 96-well polystyrene culture plates (Iwaki, Tokyo, Japan). First, the cells were incubated for 90 min at 37°C in a shaker at 75 rpm to allow yeast adherence to the well surface (adhesion phase), before the medium was aspirated and each well was washed once with PBS to remove non-adherent cells. YNB containing 100 mM glucose was then pipetted into each well and the plate was incubated at 37°C in a shaker at 75 rpm for 24 h. Non-adherent cells were removed by pipetting and the biofilms were washed twice with PBS. Following this biofilm growth phase, microscopic examination of the cultures was performed to exclude contamination. These ASTs were repeated on three different occasions.

[2] = tested on: C. tropicalis ATCC13803; test: AST, adhesion phase; assay type: cell-based; details: Candida tropicalis, ATCC13803, 1.5 h, read-out: Minimum inhibitory concentration (MIC)
Protocol: as §1, §2

[3] = tested on: C. dubliniensis MYA 577; test: AST, adhesion phase; assay type: cell-based; details: Candida dubliniensis, MYA577, 1.5 h, read-out: Minimum inhibitory concentration (MIC)
Protocol: as §1, §2

[4] = tested on: C. glabrata ATCC 2001; test: AST, adhesion phase; assay type: cell-based; details: Nakaseomyces glabratus, ATCC2001, 1.5 h, read-out: Minimum inhibitory concentration (MIC)
Protocol: as §1, §2

[5] = tested on: C. palapsilosis ATCC 22019; test: AST, adhesion phase; assay type: cell-based; details: 1.5 h, read-out: Minimum inhibitory concentration (MIC)
Protocol: as §1, §2

[6] = tested on: C. albicans SC5314; test: AST, adhesion phase; assay type: cell-based; details: Candida albicans, SC5314, 1.5 h, read-out: Minimum inhibitory concentration (MIC)
Protocol: as §1, §2

[7] = tested on: C. albicans SC5314; test: AST broth microdilution, high cell density planktonic mode; assay type: cell-based, Candida albicans; details: Candida albicans, SC5314, 24 h, read-out: Minimum inhibitory concentration (MIC)
Protocol: as §1, §2

[8] = tested on: Candida strains; test: AST, adhesion phase, all Candida strains; assay type: cell-based; details: all six strains
Protocol: as §1
as §2, with “First, the cells were incubated for 90 min at 37°C in a shaker at 75 rpm to allow yeast adherence to the well surface (adhesion phase), before the medium was aspirated and each well was washed once with PBS to remove non-adherent cells. YNB containing 100 mM glucose was then pipetted into each well and the plate was incubated at 37°C in a shaker at 75 rpm for 24 h. Non-adherent cells were removed by pipetting and the biofilms were washed twice with PBS. Following this biofilm growth phase, microscopic examination of the cultures was performed to exclude contamination. These ASTs were repeated on three different occasions.” left out

[9] = tested on: C. kusei ATCC 6258; test: AST broth microdilution, high cell density planktonic mode; assay type: cell-based; details: 24 h, read-out: Minimum inhibitory concentration (MIC)
Protocol: as §1, §2

[10] = tested on: C. tropicalis ATCC13803; test: as above; assay type: cell-based; details: Candida tropicalis, read-out: Minimum inhibitory concentration (MIC)
Protocol: as §1, §2

[11] = tested on: C. dubliniensis MYA 577; test: as above; assay type: cell-based; details: Candida dubliniensis, read-out: Minimum inhibitory concentration (MIC)
Protocol: as §1, §2

[12] = tested on: C. glabrata ATCC 2001; test: as above; assay type: cell-based; details: Nakaseomyces glabratus, read-out: Minimum inhibitory concentration (MIC)
Protocol: as §1, §2

[13] = tested on: C. palapsilosis ATCC 22019; test: as above; assay type: cell-based; details: 24 h, read-out: Minimum inhibitory concentration (MIC)
Protocol: as §1, §2

[14] = adhesion phase (90 min adherence)
[15] = 50% MIC, planktonic mode, 1 × 10^7 cells/mL, 24 h
[16] = 50% MIC, planktonic mode, 1 × 10^7 cells/mL
[17] = ATCC13803, 50% MIC, planktonic mode, 1 × 10^7 cells/mL, 24 h
[18] = MYA577, 50% MIC, planktonic mode, 1 × 10^7 cells/mL, 24 h
[19] = ATCC2001, 50% MIC, planktonic mode, 1 × 10^7 cells/mL, 24 h

Structure (SMILES)	MIC [1, 14]	MIC [2, 14]	MIC [3, 14]	MIC [4, 14]	MIC [5, 14]	MIC [6, 14]	MIC [7, 15]	concentration that inhibited the metabolic activity of Candida strains [8]	MIC [9, 16]	MIC [10, 17]	MIC [11, 18]	MIC [12, 19]	MIC [13, 16]	further results
Cc1ccc(S(=O)(=O)/C=C/C#N)cc1 [Bay11-7082]	15.6 µM (≈ 3.23 µg/mL)	31.3 µM (≈ 6.49 µg/mL)	15.6 µM (≈ 3.23 µg/mL)	31.3 µM (≈ 6.49 µg/mL)	15.6 µM (≈ 3.23 µg/mL)	31.3 µM (≈ 6.49 µg/mL)	7.8 µM (≈ 1.62 µg/mL)	< 31.3 µM	3.9 µM (≈ 0.808 µg/mL)	7.8 µM (≈ 1.62 µg/mL)	3.9 µM (≈ 0.808 µg/mL)	7.8 µM (≈ 1.62 µg/mL)	3.9 µM (≈ 0.808 µg/mL)	
CC(C)(C)c1ccc(S(=O)(=O)/C=C/C#N)cc1 [Bay11-7085]	15.6 µM (≈ 3.89 µg/mL)	31.3 µM (≈ 7.8 µg/mL)	15.6 µM (≈ 3.89 µg/mL)	31.3 µM (≈ 7.8 µg/mL)	7.8 µM (≈ 1.94 µg/mL)	31.3 µM (≈ 7.8 µg/mL)	3.9 µM (≈ 0.972 µg/mL)	< 31.3 µM	3.9 µM (≈ 0.972 µg/mL)	3.9 µM (≈ 0.972 µg/mL)	3.9 µM (≈ 0.972 µg/mL)	3.9 µM (≈ 0.972 µg/mL)	3.9 µM (≈ 0.972 µg/mL)	
Cc1c2ccncc2c(C)c2c1[nH]c1ccccc12 [Ellipticine]	250 µM (≈ 61.6 µg/mL)	250 µM (≈ 61.6 µg/mL)	125 µM (≈ 30.8 µg/mL)	62.5 µM (≈ 15.4 µg/mL)	125 µM (≈ 30.8 µg/mL)	62.5 µM (≈ 15.4 µg/mL)	7.8 µM (≈ 1.92 µg/mL)		7.8 µM (≈ 1.92 µg/mL)	15.6 µM (≈ 3.84 µg/mL)	3.9 µM (≈ 0.961 µg/mL)	7.8 µM (≈ 1.92 µg/mL)	7.8 µM (≈ 1.92 µg/mL)	
C[n+]1cc2c3c(ccc2c2ccc4cc5c(cc4c21)OCO5)OCO3 [Sanguinarine, Sanguinarine chloride hydrate]								< 15.6 µM						MIC [1]: 7.8 µM; MIC [2]: 7.8 µM; MIC [3]: 15.6 µM; MIC [4]: 15.6 µM; MIC [5]: 7.8 µM; MIC [6]: 15.6 µM; MIC [7]: < 1 µM; MIC [9]: < 1 µM; MIC ([10]; ATCC13803, 24 h): < 1 µM; MIC ([11]; MYA577, 24 h): < 1 µM; MIC ([12]; ATCC2001, 24 h): < 1 µM; MIC [13]: < 1 µM
